This note sets out measurements from patent publication US12679839B2, “Cyclin-dependent kinase 7 (CDK7) non-covalent inhibitors” (JANSSEN PHARMACEUTICA NV, priority 2020, dated 2026).

Experiment [1] relates to RNA polymerase II Serine 5 phosphorylation (Rpb1 CTD), downstream substrate of CDK7. Kind of experiment: Imaging-based cellular RNA PolII Ser5 phosphorylation assay in A549 cells. Type of experiment: cell-based, human. The settings on record: challenged with compound for 3 hours; for IC50: Homo sapiens, A549, 3 h, read-out: pRNA polII Ser5 (A549) pIC50 (converted). An outline of the steps:
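A549 cells seeded 20 h in DMEM with 1% FBS, then exposed to compound for 3 h at 37 °C; fixed, methanol-permeabilized and immunostained for phospho-Rpb1 CTD Ser5, read by automated imaging. Signal normalized to DMSO (high) and 10 μM LDC4297 (low) controls; IC50 from four-parameter fit of % control vs concentration.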

In experiment [2] the target is T1, CDK7/Cyclin H/MAT-1 complex (Homo sapiens, UniProt P50613).
T1 construct: Human CDK7 (amino acids 1-346); His6 (N); TEV protease cleavage site (N); made in house; host or cells: baculovirus-SF9 insect cells
T1 sequence (P50613 whole entry, the tested form may be a part): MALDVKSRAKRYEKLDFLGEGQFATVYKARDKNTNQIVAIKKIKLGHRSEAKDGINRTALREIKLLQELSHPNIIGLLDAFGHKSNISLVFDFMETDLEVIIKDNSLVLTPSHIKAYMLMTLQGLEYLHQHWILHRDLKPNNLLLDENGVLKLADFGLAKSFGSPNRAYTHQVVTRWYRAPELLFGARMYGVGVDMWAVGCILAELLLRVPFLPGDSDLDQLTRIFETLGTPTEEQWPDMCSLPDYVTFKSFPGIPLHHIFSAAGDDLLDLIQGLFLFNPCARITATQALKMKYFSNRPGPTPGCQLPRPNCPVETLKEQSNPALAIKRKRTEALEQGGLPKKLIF
T1 sequence (P51946 whole entry partner, the tested form may be a part): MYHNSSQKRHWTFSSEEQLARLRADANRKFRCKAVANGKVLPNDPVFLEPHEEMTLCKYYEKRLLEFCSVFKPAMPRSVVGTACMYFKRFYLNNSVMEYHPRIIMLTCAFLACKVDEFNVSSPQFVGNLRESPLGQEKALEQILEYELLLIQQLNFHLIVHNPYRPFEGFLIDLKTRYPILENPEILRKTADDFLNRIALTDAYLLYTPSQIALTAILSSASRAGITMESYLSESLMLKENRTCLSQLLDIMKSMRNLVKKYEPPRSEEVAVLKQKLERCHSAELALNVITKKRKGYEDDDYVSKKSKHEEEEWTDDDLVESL
T1 sequence (P51948 whole entry partner, the tested form may be a part): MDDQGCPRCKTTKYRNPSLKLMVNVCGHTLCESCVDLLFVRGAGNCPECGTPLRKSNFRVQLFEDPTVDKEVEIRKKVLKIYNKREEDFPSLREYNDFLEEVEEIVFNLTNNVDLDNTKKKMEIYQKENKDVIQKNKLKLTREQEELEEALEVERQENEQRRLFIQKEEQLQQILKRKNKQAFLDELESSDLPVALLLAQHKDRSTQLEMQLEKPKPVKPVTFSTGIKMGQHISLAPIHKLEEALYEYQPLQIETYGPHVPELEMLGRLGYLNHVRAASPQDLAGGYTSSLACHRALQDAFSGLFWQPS
Kind of experiment: Flint assay, end-point fluorescence (5 nM CDK7/Cyclin H/MAT-1 complex). Type of experiment: biochemical. The settings on record: read-out: CDK7 (5 nM) pIC50 (converted). As to the method: (§1) Human CDK7 (amino acids 1-346) containing an N-terminal His6-tag followed by a tobacco etch virus (TEV) protease cleavage site, human MAT1 (amino acids 1-309) and human cyclin H (amino acids 1-323) were co-expressed in the baculovirus-SF9 insect cell expression system to generate a trimeric complex. Cell pellets were collected 72 h post-infection and were resuspended by Dounce homogenization in 20 mM Hepes-NaOH (pH 8.0), 300 mM NaCl, 10% glycerol, 2 mM dithiothreitol DTT), and 20 mM Imidazole supplemented with cOmplete™ Protease Inhibitor Cocktail (Roche) and 25 U/mL Benzonase® Nuclease HC according to the manufacturer's instructions. Cells were lysed by passing through a Microfluidics M110Y Microfluidizer 3 times at 600 kPa followed by centrifugation at 38,000×g at 4° C. for 1 hour. The supernatant was loaded onto a pre-equilibrated HisTrap HP column and eluted in 20 mM Hepes-NaOH (pH 8.0), 50 mM NaCl, 10% glycerol, 2 mM DTT, and 400 mM Imidazole. The eluate was further purified by gel filtration on a Superdex S200 16/60 column and eluted with 20 mM Hepes-NaOH (pH 7.5), 50 mM NaCl, 10% Glycerol, 2 mM DTT. Fractions containing a trimeric complex of CDK7, cyclin H, and MAT1 in a 1:1:1 ratio were pooled and concentrated to 3 mg/mL in a 10 kDa MWCO concentrator, and diluted to a final concentration of 1.6 mg/mL in 11.1 mM Hepes-NaOH (pH 8.0), 27.8 mM NaCl, 1.1 mM DTT and 50% glycerol.
Compounds with potencies approaching the limit of detection of the assay (IC50≤10 nM) were further assessed in a more sensitive fluorescence end-point assay.
(§2) [formula] where νo is the rate in the absence of inhibitor, νmin is the rate at highest inhibitor concentration, and h is the Hill coefficient. Flint Assay (5 nM CDK7/Cyclin H/MAT-1 Complex)
The continuous absorbance assay was converted to an end-point fluorescence assay following the NADH fluorescence signal decrease at the excitation and emission wavelengths of 340 nm and 440 nm, respectively.
Under the same concentrations of substrates and coupling reagents used in the absorbance assay, the fluorescence assay was performed at a reduced concentration of the CDK7/Cyclin H/MAT-1 complex of 5 nM (final concentration) with a reaction time of 24 hours. The percent of inhibition was calculated by the following equation. Percent of inhibition=(Sample−NC)/(PC−NC)*100 where NC is the mean if negative control (reaction without inhibitor), and PC is the mean of positive control (reaction with complete inhibition).
Dosing curves were fitted using the following equation to obtain IC50: Y=Bottom+(Top−Bottom)/(1+10^((log IC50−X)*Hill slope)) where X=log10 of the compound concentration; top and bottom can be defined by PC and NC respectively. Imaging-Based Cellular RNA PolII Ser5 Phosphorylation Assay

Experiment [3] concerns the target T1, CDK7/Cyclin H/MAT-1 complex. Briefly: Absorbance kinetic assay (20 nM CDK7/Cyclin H/MAT-1 complex). Type of experiment: biochemical. The settings on record: for IC50: read-out: CDK7 (20 nM) pIC50 (converted). The method, then:
as §1, with “glycerol. […]” for “glycerol.”
Absorbance Kinetic Assay (20 nM CDK7/Cyclin H/MAT-1 Complex)
CDK7 complex catalyzes the ATP-dependent phosphorylation of a peptide substrate CDK7/9-tide that is derived from RNA Pol II to produce phosphorylated peptide and ADP. The kinase reaction product ADP was converted to lactate and NAD^+ in the presence of phosphoenol pyruvate (PEP), NADH and coupling enzymes lactate dehydrogenase (LDH) and pyruvate kinase (PK). CDK7 complex catalytic activity was measured by following the absorbance intensity continuously at 340 nm that corresponds with the depletion of NADH.
Absorbance at 340 nm was followed kinetically at an interval of 2 minutes for 8 hours.
The assay was carried out with 100 μl reaction volume per well in a 384-well plate that was pre-spotted nanoliter volume of compounds by LabCyte Echo 555. Compound dilution plates were made by 2-fold (could vary upon necessity) dilution in DMSO for 11 concentrations plus a DMSO control of uninhibited reaction. 2× substrate and coupling reagent mixture was added to the assay plate followed by an addition of an equal volume of 40 nM CDK7/Cyclin H/MAT-1 complex. After mixing, assay plates were spun at 2000 rpm for 3 minutes and then transferred to the plate reader for data collection.
For reversible inhibitors, the absorbance reaction progress curves were linear. The steady-state rate was derived from the slope of the linear curves. The following equation is applied to determine percent inhibition.
[formula] • νo=max rate (uninhibited rate) • νi=inhibited rate
The IC50 value is calculated by the following equation:
as §2

For the molecule `[2H]C([2H])([2H])N1CC[C@H](C(=O)N2Cc3nc(NC4CCOCC4)ncc3C[C@H]2C)[C@@H](c2ccccc2)C1` (single isomer, unassigned) [Compound 156], the figures for the IC50 in experiment [1] and in experiment [2] were 0.126 µM and 0.00324 µM, respectively.

In the case of `CO[C@H]1CC[C@H](Nc2cc3c(cn2)C[C@H](C)N(C(=O)[C@H]2CCN(C)C[C@@H]2c2ccccc2)C3)CC1` (single isomer, unassigned) [Compound 172], the IC50 in experiment [1] is 0.186 µM; in experiment [2] it was 0.00741 µM.

In the case of `C[C@@H]1Cc2cnc(NCC(=O)N3CCCCC3)nc2CN1C(=O)[C@H]1CCN(C)C[C@@H]1c1ccccc1` [Compound 28], in experiment [1], the IC50 is > 10 µM. Also, the “CDK7 (20 nM) pIC50” value in experiment [3] amounted to 6.59.

For `CC(C)n1cc(CNc2ncc3c(n2)CN(C(=O)[C@H]2CCN(C)C[C@@H]2c2ccccc2)[C@H](C)C3)cn1` [Compound 30], the IC50 in experiment [1] is 3.89 µM. Further, the “CDK7 (20 nM) pIC50” value in experiment [3] is given as 7.03.

As for `C[C@@H]1Cc2cnc(NC3CCN(C(=O)CC4CC4)CC3)nc2CN1C(=O)[C@H]1CCN(C)C[C@@H]1c1ccccc1` [Compound 31], in experiment [1], the IC50 was ~0.0692 µM. In addition, in experiment [3], the “CDK7 (20 nM) pIC50” value is listed as 7.81.

Take `C[C@@H]1Cc2cnc(NCc3c(F)cccc3F)nc2CN1C(=O)[C@H]1CCN(C)C[C@@H]1c1ccccc1` [Compound 32]: the IC50 in experiment [1] is 0.372 µM. The “CDK7 (20 nM) pIC50” value in experiment [3] was found to be 7.9.

As to `C[C@@H]1Cc2cnc(NC3CCN(C(=O)C4CC4)CC3)nc2CN1C(=O)[C@H]1CCN(C)C[C@@H]1c1ccccc1` [Compound 33], the IC50 in experiment [1] was 0.162 µM. In addition, the “CDK7 (20 nM) pIC50” value in experiment [3] amounted to 7.88.

For the molecule `C[C@@H]1Cc2cnc(NCC3CC3)nc2CN1C(=O)[C@H]1CCN(C)C[C@@H]1c1ccccc1` [Compound 34], the IC50 in experiment [1] was 0.275 µM. Also, the “CDK7 (20 nM) pIC50” value in experiment [3] amounted to 7.94.

As for `C[C@@H]1Cc2cnc(NCc3ccccn3)nc2CN1C(=O)[C@H]1CCN(C)C[C@@H]1c1ccccc1` [Compound 35], in experiment [1], the IC50 is 0.2 µM. The “CDK7 (20 nM) pIC50” value in experiment [3] was found to be 7.78.

Consider `C[C@@H]1Cc2cnc(NCC3CCOCC3)nc2CN1C(=O)[C@H]1CCN(C)C[C@@H]1c1ccccc1` [Compound 36], for which the IC50 in experiment [1] is 2.4 µM. Also, the “CDK7 (20 nM) pIC50” value in experiment [3] is 7.19.

Turning to `CO[C@H]1CC[C@@H](Nc2ncc3c(n2)CN(C(=O)[C@H]2CCN(C)C[C@@H]2c2ccccc2)[C@H](C)C3)CC1` [Compound 38], the IC50 in experiment [1] is 1.38 µM. Besides, in experiment [3], the “CDK7 (20 nM) pIC50” value was 7.46.

`C[C@@H]1Cc2cnc(NC3CCN(S(=O)(=O)C4CC4)CC3)nc2CN1C(=O)[C@H]1CCN(C)C[C@@H]1c1ccccc1` [Compound 41]: in experiment [1], the IC50 is > 10 µM. Also, the “CDK7 (20 nM) pIC50” value in experiment [3] is listed as 6.18.

On to `C[C@@H]1Cc2cnc(NC3CCN(C4CC4)CC3)nc2CN1C(=O)[C@H]1CCN(C)C[C@@H]1c1ccccc1` [Compound 42], for which, in experiment [1], the IC50 is 1.38 µM. Moreover, the “CDK7 (20 nM) pIC50” value in experiment [3] stood at 7.39.

As to `C[C@@H]1Cc2cnc(NCc3cn(C)cn3)nc2CN1C(=O)[C@H]1CCN(C)C[C@@H]1c1ccccc1` [Compound 63], the IC50 in experiment [1] is > 10 µM. Also, the “CDK7 (20 nM) pIC50” value in experiment [3] is given as 7.38.

As to `C[C@@H]1Cc2cnc(NC3CCC(F)(F)CC3)nc2CN1C(=O)[C@H]1CCN(C)C[C@@H]1c1ccccc1` [Compound 64], in experiment [1], the IC50 is 0.141 µM. Also, in experiment [3], the “CDK7 (20 nM) pIC50” value is on record as >8.01.

Take `C[C@@H]1Cc2cnc(NC[C@H]3CCCO3)nc2CN1C(=O)[C@H]1CCN(C)C[C@@H]1c1ccccc1` [Compound 68]: the IC50 in experiment [1] is 2.4 µM; in experiment [3] it was 0.0145 µM.

For the molecule `C[C@@H]1Cc2cnc(NC3CCOCC3)nc2CN1C(=O)[C@@H]1CCN(C)C[C@H]1c1ccc(F)cc1` [Compound 92a], the IC50 in experiment [1] is > 10 µM. In experiment [3], the “CDK7 (20 nM) pIC50” value was found to be 5.11.

For the molecule `Cc1cc(C2CN(C)CCC2C(=O)N2Cc3nc(NC4CCOCC4)ncc3C[C@H]2C)ccn1` (some centres unmarked) [Compound 101], the IC50 in experiment [1] was 4.47 µM. Further, the “CDK7 (20 nM) pIC50” value in experiment [3] stood at 7.67.

For `CO[C@H]1CC[C@H](Nc2ncc3c(n2)CN(C(=O)C2CCN(C)CC2c2ccnc(C)c2)[C@H](C)C3)CC1` (some centres unmarked) [Compound 104], the results for the IC50 in experiment [1] and in experiment [3] were 1.23 µM and 0.0129 µM, respectively.

In the case of `C[C@@H]1Cc2cnc(NC3CCOCC3)nc2CN1C(=O)[C@@H]1CCN(C)C[C@H]1c1ccc(Cl)c(F)c1` [Compound 122a], in experiment [1], the IC50 was > 10 µM. Further, the “CDK7 (20 nM) pIC50” value in experiment [3] was <5.

In the case of `C[C@@H]1Cc2cnc(NC3CCOCC3)nc2CN1C(=O)[C@@H]1CCN(C)C[C@H]1C(F)(F)F` [Compound 140a], the IC50 in experiment [1] was > 10 µM. The “CDK7 (20 nM) pIC50” value in experiment [3] was 5.89.

For `CO[C@H]1CC[C@H](Nc2cc3c(cn2)C[C@H](C)N(C(=O)[C@@H]2CCN(C)C[C@H]2c2cccc(C)c2)C3)CC1` [Compound 177b], in experiment [1], the “pRNA polII Ser5 (A549) pIC50” value is listed as ~5.23. In addition, the “CDK7 (20 nM) pIC50” value in experiment [3] is <5.

On to `C[C@@H]1CN(C(=O)[C@H]2CCN(C)C[C@@H]2c2ccccc2)[C@@H](C)c2nc(NC3CCOCC3)ncc21` [Compound 180b], for which the IC50 in experiment [1] was 3.89 µM. Besides, in experiment [3], the “CDK7 (20 nM) pIC50” value turned out to be 5.65.

As to `CN1CCN(C(=O)N2Cc3nc(NC4CCOCC4)ncc3CC2(C)C)[C@@H](c2ccccc2)C1` [Compound 205], the IC50 in experiment [1] was 0.513 µM. Moreover, the “CDK7 (20 nM) pIC50” value in experiment [3] is on record as 7.89.

For `C[C@@H]1Cc2cnc(NC3CCOCC3)nc2CN1C(=O)N1CCNC[C@@H]1c1ccccc1` [Compound 208], in experiment [1], the IC50 is 1.23 µM. Further, the “CDK7 (20 nM) pIC50” value in experiment [3] came to 7.66.
